Data: patent publication US10758513B2, “Modulators of mitochondrial protein import” (THE REGENTS OF THE UNIVERSITY OF CALIFORNIA, priority 2011, dated 2020)
Values after ≈ are worked out from the molar mass of the structure shown.

Assays:
[1] = test system: tim10-1 mutant; test: Yeast growth inhibition (MIC50), tim10-1 mutant; assay type: cell-based; details: Saccharomyces cerevisiae, read-out: MIC50 that inhibited growth of the tim10-1 mutant
Description: The screen was conducted with an integrated robotic system with plate scheduling. Briefly, diversity oriented commercial libraries of drug-like compounds from Chembridge and Asinex were screened against the tim10-1 strain at a concentration of approximately 10 μM. The screen encompassed a total of approximately 50,000 compounds dissolved in DMSO. Yeast in YPD medium was aliquoted into 384-well plates followed by compound addition with robotic pinning into the assay wells. DMSO was the vehicle for the small molecules, and several plate columns that contained only 1% DMSO were included as a control with the pinned compounds. As a negative control for growth, wells pinned with the mitochondrial uncoupler CCCP, which caused lethality, were also included. After 2 days of incubation at 25° C., cultures in each well were measured for optical density (O.D.) as a measure of growth. A typical reading for the positive control was OD600=0.8. […]
A primary screen was performed using freshly streaked tim10-1 diluted in YPD to an OD600 of approximately 0.0002 and kept on ice throughout the screening run. […] Each plate was shaken in a Beckman orbital shaker to resuspend settled cells, and the OD600 in each well was read by a Wallac Victor plate reader (Perkin Elmer). The top 600 growth inhibitory compounds were determined and assembled into two plates. […]

[2] = test system: tim10-1 tim9S mitochondria; test: Respiration (oxygen electrode) of tim10-1 tim9S mitochondria; assay type: biochemical, yeast; details: NADH; 25 μM MitoBloCK-1; CCCP as control
Description: Oxygen consumption of […] mitochondria was measured using methods previously described (8). Briefly, purified […] mitochondria aliquots (25 mg/mL) were thawed on ice and tested within 2 hours. A Clark-type oxygen electrode in a stirred, thermostatically controlled 1.5-ml chamber at 25° C. (Oxytherm; Hansatech) facilitated measurement. […] Consumption rate was monitored for approximately 2 min.

[3] = test system: tim9-3 mutant; test: Yeast growth inhibition (MIC50), tim9-3 mutant; assay type: cell-based; details: Saccharomyces cerevisiae; disrupted for prd5 and snq2
[4] = test system: HeLa cells; test: MTT cell viability assay in HeLa cells (MitoBloCK-1); assay type: cell-based; details: 25 μM and 50 μM, 24 hours
Description: Measurements of cell viability/toxicity were made with a MTT based toxicology assay kit (Sigma-Aldrich). HeLa cells were grown in 24-well tissue culture dishes to 80% confluency. […] Following drug treatment, cells were rinsed with phosphate buffered saline and incubated with complete media with MTT solution supplement for additional 4 hours as described in manufacturer's protocols. This media was removed and 500 μL of MTT solubilization solution was added to dissolve the formazan crystals. The formazan absorbance was measured at OD=570 nm on a Wallac Victor plate reader (Perkin Elmer) along with a turbidity measurement at OD=630 nm. After turbidity subtraction, the percent viability of each cell sample was calculated as: [(absorbance of vehicle treated cells−absorbance of drug treated cells)/(absorbance of vehicle treated cells)]×100.

[5] = test system: Δpdr5Δsnq2 yeast strain; test: Yeast growth inhibition (MIC50), Δpdr5Δsnq2 strain; assay type: cell-based; details: Saccharomyces cerevisiae, ethanol-glycerol media, 25° C., 40 hours
Description: For MIC50 analysis in the yeast strains, serial dilution of MitoBloCK-6 (0.5 μl) was pinned into assay plate wells containing 50 μl of yeast (Table 2) in rich ethanol-glycerol media (starting OD600=0.0002). Plates were then incubated at 25° C. in a humidified chamber for 40 hours. Each plate was shaken in a Beckman orbital shaker to resuspend settled cells, and the OD600 in each well was read by a Wallac Victor plate reader (Perkin Elmer).

[6] = Stability of MitoBloCK-6 in screening buffer by LC-MS; assay type: physicochemical; details: pH 3.4, 6.5, 7.4; room temperature, 1 hour
Description: MitoBloCK-6 at a final concentration of 3 mM was incubated with screening buffer (30 mM Hepes, 100 mM NaCl, 1 mM EDTA) at pH 3.4, 6.5, and 7.4 in a reaction volume of 100 μl at room temperature for 1 hour. The sample was injected into the LC-MS and retention was monitored. As a control, 20 mM MitoBloCK-6 in 1% DMSO was also analyzed.
LC-MS experiments were carried out on a Waters Acquity UPLC connected to a Waters LCT-Premier XE Time of Flight Instrument controlled by MassLynx 4.1 software. The mass spectrometer was equipped with a Multi-Mode Source operated in the electrospray mode. Briefly, samples of MitoBloCK-6, ES-1, and ES-2 were separated using an Acquity BEH C18 1.7 um column (2.1×50 mm, Waters) and were eluted with a gradient of 0.5 mL/min water/acetonitrile with 2, 80, and 95% acetonitrile at 0.5, 2.5 and 3.5 min, respectively. Mass spectra were recorded from 80 to 2000 Daltons. All solvents were LC-MS/MS Grade and purchased from Fisher Scientific.

[7] = test system: zebrafish embryos; test: Zebrafish embryo development; assay type: in vivo
Description: Zebrafish used for o-dianisidine staining of red blood cells in DMSO and MitoBloCK-6 treated fish were albino lines generated from crosses of TL and TU fish. Line AB were injected with the ALR morpholino. Lines were maintained in a 14-hr light/10-hr dark cycle and mated for one hour to obtain synchronized embryonic development. […] Following treatment, embryos were imaged using a Leica MZ16F fluorescent stereoscope (TexasRed filter set) at 5× magnification. […] Embryos were allowed to mature to 2 dpf and then imaged like the MitoBloCK-6 treated embryos; embryos were imaged at day 2 because of concerns with morpholino dilution. Images were resized to 300 dpi without resampling using Adobe Photoshop software.

Structure (SMILES)	MIC50 [1]	rate of respiration [2]	MIC50 [3]	cell viability (MTT) [4]	MIC50 [5]	stability by LC-MS [6]	toxicity to fish ([7]; concentrations higher than 2.5 μM)	decreased heart rate ([7]; embryos treated with MitoBloCK-6 or ALR morpholino)
NC(=S)N/N=C/c1c(O)c(Br)cc2oc3c(c12)CCCC3 [MitoBloCK-1]	~1 µM (≈ 0.368 µg/mL)	did not significantly alter the rate of respiration	11 µM (≈ 4.05 µg/mL)	significantly decreased in a dose-responsive manner				
Oc1c(Cl)cc(Cl)cc1/C=N/c1ccc(Nc2ccccc2)cc1 [MitoBloCK-6]					15.2 µM (≈ 5.43 µg/mL)	stable over this pH range	toxic to the fish	50%
